# Reference: paper PMC4006692 (Journal of biomolecular screening, 2013)
# What was measured:
# 293T cells = conditions: final DMSO concentration
# HIV-1 Nef dimerization = HIV-1 Nef dimerization (Human immunodeficiency virus type 1 group M subtype B, UniProt P03407); conditions: up to a final DMSO concentration of 2.5%
# HIV-1 Nef dimerization, sequence (P03407 2-210): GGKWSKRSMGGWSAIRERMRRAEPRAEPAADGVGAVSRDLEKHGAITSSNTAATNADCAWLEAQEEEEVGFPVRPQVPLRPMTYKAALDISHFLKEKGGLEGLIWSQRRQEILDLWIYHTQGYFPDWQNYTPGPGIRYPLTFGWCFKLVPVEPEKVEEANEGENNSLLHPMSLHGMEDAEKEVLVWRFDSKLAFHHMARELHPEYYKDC
smiles,measurement,setting,value
C[S+](C)[O-] [DMSO],IC50 of cell loss (cell density),293T cells,approximately 1%
same,concentration causing cell loss,293T cells,above 0.6%
same,BiFC/mRFP ratio of WT2A,HIV-1 Nef dimerization,essentially unchanged
